Reference: patent US11512079B2, “Heterocycle substituted pyridine derivative antifungal agents” (Amplyx Pharmaceuticals, Inc., priority 2017, dated 2022)
≈ marks a conversion by molar mass, not a printed value.

Experiments:
Type in all cases: cell-based
Candida albicans 90028 = assay: In vitro antifungal assay (Example IX), microdilution broth, MIC; conditions: minimum inhibitory concentration (≥50% inhibition), 35° C., 40-48 h, RPMI1640
How it was run: (§1)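 Yeast inocula (2.5×10^3 cells/mL, RPMI1640) were exposed to twofold compound series reaching 2-0.0019 μg/mL final, per CLSI yeast methodology. Incubation at 35° C. ran 40-48 h for Candida albicans 90028 and 72 h for Cryptococcus neoformans H99. MIC endpoints were confirmed by absorbance at 600 nm.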

[1] = tested on: Cryptococcus neoformans H99; assay: as above; conditions: minimum inhibitory concentration (≥50% inhibition), 35° C., 72 h, RPMI1640
How it was run: as §1

[2] = tested on: Aspergillus fumigatus MYA3626; assay: In vitro antifungal assay (Example IX), microdilution broth, MEC; conditions: minimum effective concentration (shortening of hyphae), 35° C., 40-48 h, RPMI1640
How it was run: (§2)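 Read-out is the minimum effective concentration: lowest compound level causing shorter hyphae than in DMSO controls, echinocandin-style. Broth microdilution used conidia or spores harvested from agar plates, cleared of mycelium and clumps, at a final 1-2×10^4 spores/mL in RPMI1640.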

[3] = tested on: Rhizomucor pusillus 46342; assay: as above; conditions: minimum effective concentration (shortening of hyphae), 35° C., 40-48 h, RPMI1640
How it was run: as §2

Cryptococcus gattii = assay: In vitro antifungal assay (Example IX), microdilution broth, MIC; conditions: minimum inhibitory concentration (≥50% inhibition), 35° C., 72 h (Cryptococcus), RPMI1640
How it was run: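 MIC was determined from OD600 after 72 h at 35 °C for Cryptococcus, in RPMI1640 inoculated at 2.5×10^3 cells/mL. Compounds were tested as a 2-fold series from 2 to 0.0019 μg/mL final, added from DMSO intermediates at a 100-fold dilution.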

Structure (SMILES)	MIC (Candida albicans 90028) [µg/mL]	MIC [1] [µg/mL]	minimal effective concentration [2] [µg/mL]	minimal effective concentration [3] [µg/mL]	MIC (Cryptococcus gattii) [µg/mL]
Nc1ncccc1-c1cc(Cc2ccc(OCC3CC3)nc2)no1 [compound 43, 3-(3-((6-(cyclopropylmethoxy)pyridin-3-yl)methyl)isoxazol-5-yl)pyridin-2-amine]	0.1 to 1 (≈ 0.31 to 3.1 µM)	0.01 to 0.1 (≈ 0.031 to 0.31 µM)	0.01 to 0.1	0.1 to 1	0.01 to 0.1 (≈ 0.031 to 0.31 µM)
Nc1ncccc1-c1cc(Cc2ccc(COc3cccc(F)c3)cc2)no1 [Example 169, 3-(3-(4-((3-fluorophenoxy)methyl)benzyl)isoxazol-5-yl)pyridin-2-amine]	0.01 to 0.1 (≈ 0.0266 to 0.266 µM)	0.01 to 0.1 (≈ 0.0266 to 0.266 µM)	0.01 to 0.1	0.1 to 1	0.01 to 0.1 (≈ 0.0266 to 0.266 µM)
Nc1ncccc1-c1cc(Cc2ccnc(OCC3CC3)c2)no1 [Example 150, 3-(3-((2-(cyclopropylmethoxy)pyridin-4-yl)methyl)isoxazol-5-yl)pyridin-2-amine]	0.1 to 1 (≈ 0.31 to 3.1 µM)	0.1 to 1 (≈ 0.31 to 3.1 µM)	0.1 to 1	> 1	0.1 to 1 (≈ 0.31 to 3.1 µM)
Nc1ncccc1-c1cc(Cc2ccc(N3CCC3c3ccccc3)nc2)no1 (centres unmarked) [compound 188, 3-(3-((6-(2-phenylazetidin-1-yl)pyridin-3-yl)methyl)isoxazol-5-yl)pyridin-2-amine]	> 1	> 1	> 1	0.1 to 1	> 1
COc1cc(COc2ccc(Cc3cc(-c4cccnc4N)on3)cn2)ccn1 [Example 165, 3-(3-((6-((2-methoxypyridin-4-yl)methoxy)pyridin-3-yl)methyl)isoxazol-5-yl)pyridin-2-amine]	0.1 to 1 (≈ 0.257 to 2.57 µM)	0.01 to 0.1 (≈ 0.0257 to 0.257 µM)	0.01 to 0.1	0.1 to 1	0.01 to 0.1 (≈ 0.0257 to 0.257 µM)
Nc1ncccc1-c1cc(Cc2ccc(Oc3ncccc3F)cc2)no1 [compound 235, 3-(3-(4-((3-fluoropyridin-2-yl)oxy)benzyl)isoxazol-5-yl)pyridin-2-amine]	0.01 to 0.1 (≈ 0.0276 to 0.276 µM)	≤ 0.01	0.01 to 0.1	0.1 to 1	≤ 0.01
Nc1ncccc1-c1cc(Cc2ccc(Nc3ccccc3F)nc2)no1 [compound 60, 5-((5-(2-aminopyridin-3-yl)isoxazol-3-yl)methyl)-N-(2-fluorophenyl)pyridin-2-amine]	0.01 to 0.1 (≈ 0.0277 to 0.277 µM)	0.01 to 0.1 (≈ 0.0277 to 0.277 µM)	0.1 to 1	> 1	0.01 to 0.1 (≈ 0.0277 to 0.277 µM)
Cc1nc(COc2ccc(Cc3cc(-c4cccnc4N)on3)cn2)cs1 [compound 50, 3-(3-((6-((2-methylthiazol-4-yl)methoxy)pyridin-3-yl)methyl)isoxazol-5-yl)pyridin-2-amine]	0.1 to 1 (≈ 0.264 to 2.64 µM)	0.1 to 1 (≈ 0.264 to 2.64 µM)	0.1 to 1	> 1	0.1 to 1 (≈ 0.264 to 2.64 µM)
Nc1ncccc1-c1cc(Cc2ccc(OCc3ccccc3F)cc2)no1 [Example 141, 3-(3-(4-((2-fluorobenzyl)oxy)benzyl)isoxazol-5-yl)pyridin-2-amine]	0.01 to 0.1 (≈ 0.0266 to 0.266 µM)	0.01 to 0.1 (≈ 0.0266 to 0.266 µM)	0.01 to 0.1	0.1 to 1	0.01 to 0.1 (≈ 0.0266 to 0.266 µM)
Nc1ncccc1-c1cc(Cc2ccc(OCCCc3ccccc3)nc2)no1 [compound 213, 3-(3-((6-(3-phenylpropoxy)pyridin-3-yl)methyl)isoxazol-5-yl)pyridin-2-amine]	0.1 to 1 (≈ 0.259 to 2.59 µM)	0.1 to 1 (≈ 0.259 to 2.59 µM)	0.1 to 1	> 1	0.1 to 1 (≈ 0.259 to 2.59 µM)
Nc1ncccc1-c1cc(Cc2ccc(Cc3ccco3)cc2)no1 [compound 121, 3-(3-(4-(furan-2-ylmethyl)benzyl)isoxazol-5-yl)pyridin-2-amine]	0.01 to 0.1 (≈ 0.0302 to 0.302 µM)	0.01 to 0.1 (≈ 0.0302 to 0.302 µM)	≤ 0.01	0.01 to 0.1	0.01 to 0.1 (≈ 0.0302 to 0.302 µM)
Nc1ncccc1-c1cc(Cc2ccnc(OCc3ccccc3F)c2)no1 [Example 149, 3-(3-((2-((2-fluorobenzyl)oxy)pyridin-4-yl)methyl)isoxazol-5-yl)pyridin-2-amine]	0.01 to 0.1 (≈ 0.0266 to 0.266 µM)	0.01 to 0.1 (≈ 0.0266 to 0.266 µM)	0.01 to 0.1	> 1	0.1 to 1 (≈ 0.266 to 2.66 µM)
CC(C)(O)c1cccc(Cc2ccc(Cc3cc(-c4cccnc4N)on3)cc2)c1 [compound 209, 2-(3-(4-((5-(2-aminopyridin-3-yl)isoxazol-3-yl)methyl)benzyl)phenyl)propan-2-ol]	> 1	> 1	> 1	> 1	> 1
Nc1ncccc1-c1cc(Cc2ccc(CNc3ccccc3F)cc2)no1 [compound 106, 3-(3-(4-(((2-fluorophenyl)amino)methyl)benzyl)isoxazol-5-yl)pyridin-2-amine]	0.01 to 0.1 (≈ 0.0267 to 0.267 µM)	0.1 to 1 (≈ 0.267 to 2.67 µM)	0.01 to 0.1	0.1 to 1	0.01 to 0.1 (≈ 0.0267 to 0.267 µM)
Nc1ncccc1-c1cc(Cc2ccc(OCc3ccnc(Cl)c3)cc2)no1 [compound 117, 3-(3-(4-((2-chloropyridin-4-yl)methoxy)benzyl)isoxazol-5-yl)pyridin-2-amine]	0.1 to 1 (≈ 0.255 to 2.55 µM)	0.01 to 0.1 (≈ 0.0255 to 0.255 µM)	0.01 to 0.1	> 1	≤ 0.01
Nc1ncccc1-c1cc(Cc2ccc(Cn3cccn3)cc2)no1 [compound 1, 3-(3-(4-((1H-pyrazol-1-yl)methyl)benzyl)isoxazol-5-yl)pyridin-2-amine]	0.01 to 0.1 (≈ 0.0302 to 0.302 µM)	0.1 to 1 (≈ 0.302 to 3.02 µM)	0.1 to 1	> 1	0.01 to 0.1 (≈ 0.0302 to 0.302 µM)
COc1cc(COc2ccc(Cc3cc(-c4cccnc4N)on3)cn2)c(F)cn1 [compound 207, 3-(3-((6-((5-fluoro-2-methoxypyridin-4-yl)methoxy)pyridin-3-yl)methyl)isoxazol-5-yl)pyridin-2-amine]	0.1 to 1 (≈ 0.245 to 2.45 µM)	0.01 to 0.1 (≈ 0.0245 to 0.245 µM)	0.01 to 0.1	> 1	0.1 to 1 (≈ 0.245 to 2.45 µM)
Nc1ncccc1-c1cc(Cc2ccc(OCc3ccccc3F)nc2)no1 [compound 127, 3-(3-((6-((2-fluorobenzyl)oxy)pyridin-3-yl)methyl)isoxazol-5-yl)pyridin-2-amine]	0.01 to 0.1 (≈ 0.0266 to 0.266 µM)	0.01 to 0.1 (≈ 0.0266 to 0.266 µM)	≤ 0.01	0.1 to 1	0.01 to 0.1 (≈ 0.0266 to 0.266 µM)
Nc1ncccc1-c1cc(Cc2ccc(OCc3ccncc3Cl)nc2)no1 [compound 218, 3-(3-((6-((3-chloropyridin-4-yl)methoxy)pyridin-3-yl)methyl)isoxazol-5-yl)pyridin-2-amine]	0.1 to 1 (≈ 0.254 to 2.54 µM)	> 1	0.1 to 1	> 1	> 1
Nc1ncccc1-c1cc(Cc2ccc(OCc3cccc(F)n3)nc2)no1 [compound 226, 3-(3-((6-((6-fluoropyridin-2-yl)methoxy)pyridin-3-yl)methyl)isoxazol-5-yl)pyridin-2-amine]	0.01 to 0.1 (≈ 0.0265 to 0.265 µM)	0.01 to 0.1 (≈ 0.0265 to 0.265 µM)	0.01 to 0.1	> 1	0.1 to 1 (≈ 0.265 to 2.65 µM)
Nc1ncccc1-c1cc(Cc2cnc(OCc3ccccc3)c(F)c2)no1 [compound 257, 3-(3-((6-(benzyloxy)-5-fluoropyridin-3-yl)methyl)isoxazol-5-yl)pyridin-2-amine]	0.01 to 0.1 (≈ 0.0266 to 0.266 µM)	0.1 to 1 (≈ 0.266 to 2.66 µM)	0.01 to 0.1	0.1 to 1	> 1
Nc1ncccc1-c1cc(Cc2ccc(OCc3cccc(F)c3)nc2)no1 [compound 80, 3-(3-((6-((3-fluorobenzyl)oxy)pyridin-3-yl)methyl)isoxazol-5-yl)pyridin-2-amine]	≤ 0.01	0.01 to 0.1 (≈ 0.0266 to 0.266 µM)	≤ 0.01	0.1 to 1	0.01 to 0.1 (≈ 0.0266 to 0.266 µM)
